ChEMBL document CHEMBL3045921, “Synthesis and Acaricidal Activity of Pyrazole-5-carboxamide Derivatives” (1991)

Legend:
Format in all cases: functional
Conditions in all cases: 120 h
Tetranychus urticae [1] = assay: Acaricidal activity against Tetranychus urticae (two-spotted spider mite) in kidney bean leaf assessed as mortality at 500 ppm at 25 degC measured after 5 days
Tetranychus urticae [2] = assay: Acaricidal activity against Tetranychus urticae (two-spotted spider mite) in kidney bean leaf assessed as mortality at 200 ppm at 25 degC measured after 5 days
Tetranychus urticae [3] = assay: Acaricidal activity against Tetranychus urticae (two-spotted spider mite) in kidney bean leaf assessed as mortality at 50 ppm at 25 degC measured after 5 days
Tetranychus urticae [4] = assay: Acaricidal activity against Tetranychus urticae (two-spotted spider mite) in kidney bean leaf assessed as mortality at 3.1 ppm at 25 degC measured after 5 days
Tetranychus urticae [5] = assay: Acaricidal activity against Tetranychus urticae (two-spotted spider mite) in kidney bean leaf assessed as mortality at 12.5 ppm at 25 degC measured after 5 days

Row | Structure (SMILES) | mortality at 500 ppm (Tetranychus urticae [1]) [%] | mortality at 200 ppm (Tetranychus urticae [2]) [%] | mortality at 50 ppm (Tetranychus urticae [3]) [%] | mortality at 3.1 ppm (Tetranychus urticae [4]) [%] | mortality at 12.5 ppm (Tetranychus urticae [5]) [%]
1 | Cc1n[nH]c(C(=O)NCc2ccc(C(C)(C)C)cc2)c1Cl | 0 | 0 | 0 | – | –
2 | CCn1nc(C)c(Cl)c1C(=O)NCc1ccc(C(C)(C)C)cc1 | 0 | 0 | 0 | – | –
3 | Cc1nn(C(C)C)c(C(=O)NCc2ccc(C(C)(C)C)cc2)c1Cl | 0 | 0 | 0 | – | –
4 | CCCCn1nc(C)c(Cl)c1C(=O)NCc1ccc(C(C)(C)C)cc1 | 0 | 0 | 0 | – | –
5 | Cc1nn(-c2ccccc2)c(C(=O)NCc2ccc(C(C)(C)C)cc2)c1Cl | 0 | 0 | 0 | – | –
6 | Cc1nn(Cc2ccccc2)c(C(=O)NCc2ccc(C(C)(C)C)cc2)c1Cl | 0 | 0 | 0 | – | –
7 | Cc1nn(C(F)F)c(C(=O)NCc2ccc(C(C)(C)C)cc2)c1Cl | 0 | 0 | 0 | – | –
8 | Cc1cc(C(=O)NCc2ccc(C(C)(C)C)cc2)n(C)n1 | 100 | 100 | 100 | 0 | 30
9 | COc1c(C)nn(C)c1C(=O)NCc1ccc(C(C)(C)C)cc1 | 100 | 100 | 100 | 0 | 100
10 | CCOc1c(C)nn(C)c1C(=O)NCc1ccc(C(C)(C)C)cc1 | 100 | 100 | 0 | 0 | 0
11 | Cc1nn(C)c(C(=O)NCc2ccc(C(C)(C)C)cc2)c1OC(F)F | 100 | 0 | 0 | 0 | 0
12 | Cn1ncc(Cl)c1C(=O)NCc1ccc(C(C)(C)C)cc1 | 100 | 100 | 30 | 0 | 0
13 | CC(C)c1nn(C)c(C(=O)NCc2ccc(C(C)(C)C)cc2)c1Cl | 100 | 100 | 100 | 0 | 30
14 | CCCc1nn(C)c(C(=O)NCc2ccc(C(C)(C)C)cc2)c1Cl | 100 | 80 | 30 | 0 | 0
15 | CCCc1ccc(CNC(=O)c2c(Cl)c(CC)nn2C)cc1 | 100 | 30 | 0 | 0 | 0
16 | Cc1nn(C)c(C(=O)NC(C)(C)C)c1Br | 0 | 0 | 0 | – | –
17 | Cc1nn(C)c(C(=O)Nc2ccc(C(C)(C)C)cc2)c1Br | 0 | 0 | 0 | – | –
18 | Cc1nn(C)c(C(=O)NCc2ccccc2)c1Br | 0 | 0 | 0 | – | –
19 | Cc1nn(C)c(C(=O)NC(C)c2ccccc2)c1Br (stereo not drawn) | 0 | 0 | 0 | – | –
20 | Cc1nn(C)c(C(=O)NC(C)(C)c2ccccc2)c1Br | 0 | 0 | 0 | – | –
21 | Cc1nn(C)c(C(=O)NC(c2ccccc2)C(C)C)c1Cl (stereo not drawn) | 0 | 0 | 0 | – | –
22 | Cc1nn(C)c(C(=O)NC(c2ccccc2)c2ccccc2)c1Br | 0 | 0 | 0 | – | –
23 | Cc1nn(C)c(C(=O)NC(C)c2ccc(C(C)(C)C)cc2)c1Br (stereo not drawn) | 100 | 100 | 80 | – | –
24 | Cc1nn(C)c(C(=O)NCc2ccccc2C(F)(F)F)c1Cl | 0 | 0 | 0 | – | –
25 | Cc1nn(C)c(C(=O)NCc2cccc(C(F)(F)F)c2)c1Cl | 0 | 0 | 0 | – | –
26 | Cc1nn(C)c(C(=O)NCc2ccc(C(F)(F)F)cc2)c1Cl | 100 | 100 | 80 | – | –
27 | Cc1nn(C)c(C(=O)N(C)Cc2ccc(C(C)(C)C)cc2)c1Cl | 0 | 0 | 0 | – | –
28 | Cc1nn(C)c(C(=O)OCc2ccc(C(C)(C)C)cc2)c1Br | 0 | 0 | 0 | – | –
29 | Cc1nn(C)c(C(=O)SCc2ccc(C(C)(C)C)cc2)c1Cl | 30 | 0 | 0 | – | –
